# Literature values in patent publication US8685449B2, “Pharmaceutical composition with anti-obesity activity comprising a premixture of pure orlistat and preparation process” (Laboratorios Bago S.A., priority 2010, dated 2014).
# Details: particularly in a wet environment and at a temperature above 35° C., and inclusive in a dry environment
smiles,measurement,value
"CCCCCCCCCCC[C@@H](C[C@@H]1OC(=O)[C@H]1CCCCCC)OC(=O)[C@H](CC(C)C)NC=O [orlistat, (−) tetrahydrolipstatin]",stability (hydrolisis and thermal degradation),susceptible to hydrolisis and thermal degradation
